Where a name gives a salt, the structure may show the parent alone.
Assay: HILIC, Merck SeQuant ZIC-pHILIC, 100 × 2.1 mm, 5 µm, 25 °C; gradient (min/%B) 0/3 1/3 12/30 14.5/90 17/90 18.5/3 24/3
Conditions: stereoisomer not certain

`COc1ccc2[nH]cc(CC(N)C(=O)O)c2c1` (racemic) [5-Methoxy-DL-tryptophan] and `N[C@H](Cc1c[nH]c2ccccc12)C(=O)O` [D-Tryptophan] are within 1.5-fold of each other in LC retention time: 9.74 min for the first, 10.1 min for the second.

`NCCC(N)C(=O)O` (racemic) [DL-2-4-Diaminobutyric acid dihydrochloride] and `NCCC[C@H](N)C(=O)O` [L-Ornithine] are the same in LC retention time: 15.9 min for the first, 15.9 min for the second.

`NC(CCCC(N)C(=O)O)C(=O)O` (racemic) [DL-2-6-Diaminopimelic acid] and `N[C@@H](CCCC(=O)O)C(=O)O` [L-2-Aminoadipic acid] are within 1.5-fold of each other in LC retention time: 14.8 min for the first, 12.4 min for the second.

`NC(CC(=O)O)C(=O)O` (racemic) [DL-Aspartic acid] and `NC(=O)C[C@H](N)C(=O)O` [L-Asparagine] are within 1.5-fold of each other in LC retention time: 13.6 min for the first, 13.2 min for the second.

`NC(CCS)C(=O)O` (racemic) [DL-Homocysteine] and `NC(CS)C(=O)O` (centres undefined) [Cysteine] are within 1.5-fold of each other in LC retention time: 11.1 min for the first, 11.8 min for the second.

`OCC1OC(OC2C(CO)OC(O)C(O)C2O)C(O)C(O)C1O` (single isomer, unassigned; peak a) [Lactose Peak A] and `O=C(O)C(O)C(O)C(OC1OC(CO)C(O)C(O)C1O)C(O)CO` (centres undefined) [Lactobionic acid] are within 1.5-fold of each other in LC retention time: 13.5 min for the first, 14.3 min for the second.

`Nc1ncnc2c1ncn2C1CC(O)C(CO)O1` (centres undefined) [2'-Deoxyadenosine] and `Nc1ncnc2c1ncn2C1OC(CO)C(O)C1O` (centres undefined) [Adenosine] are within 1.5-fold of each other in LC retention time: 7.15 min for the first, 7.78 min for the second.

`O=C(O)c1cc(=O)c2cccc(O)c2[nH]1` [4 8-Dihydroxyquinoline-2-carboxylic acid] and `NC(Cc1ccc(O)c(O)c1)C(=O)O` [Dihydroxyphenyl-analine L-3 4] are within 1.5-fold of each other in LC retention time: 9.54 min for the first, 12.7 min for the second.

Compared with `CN(C)c1ccc(C=CC=O)cc1` [4-(dimethyl amino) cinnamaldehyde], `CN(C)Cc1ccccc1` [Dimethylbenzylamine N N-] is 6.4-fold higher in LC retention time: 1.17 min for the first, 7.54 min for the second.

`COc1ccc2[nH]cc(CCN)c2c1` [5-methoxytryptamine] and `NCCc1c[nH]c2ccccc12` [Tryptamine] are within 1.5-fold of each other in LC retention time: 9.56 min for the first, 9.86 min for the second.

First: CC(C)=CCNc1ncnc2nc[nH]c12 [6-(Y-Y-Dimethylallylamino)purine]
Second: Nc1ncnc2nc[nH]c12 [Adenine]
The LC retention time of the first is 2.9-fold lower: 2.88 min for the first, 8.22 min for the second.

`c1cnc2[nH]ccc2c1` [7-Azaindole] and `O=C(O)c1cccnc1` [Nicotinic acid] are within 1.5-fold of each other in LC retention time: 1.74 min for the first, 2.35 min for the second.

Going from `CC(N)=O` [Acetamide] to `NC(N)=O` [Urea], the LC retention time rises from 2.38 min to 7.16 min (3-fold).

First: CC(N)C(=O)O (centres undefined) [Alanine]
Second: CC(O)C(=O)O (centres undefined) [Lactic acid]
The LC retention time of the first is 1.6-fold higher: 12.1 min for the first, 7.45 min for the second.

`CC(N)(CO)CO` [Amino-2-methylpropane-1 3-diol 2-] and `NCCO` [Ethanolamine] are within 1.5-fold of each other in LC retention time: 12.7 min for the first, 12.9 min for the second.

`NCc1ccccc1` [Benzylamine] and `c1ccc(CNCc2ccccc2)cc1` [Dibenzylamine] are within 1.5-fold of each other in LC retention time: 10.2 min for the first, 7.37 min for the second.

First: CC(=O)OCC1OC(OC(C)=O)C(OC(C)=O)C(OC(C)=O)C1OC(C)=O (stereo not drawn) [Beta-Penta acetyl glucose]
Second: O=C(CO)C(OC1OC(CO)C(O)C(O)C1O)C(O)C(O)CO (stereo not drawn) [D(+)turanose]
The LC retention time of the first is 12-fold lower: 1.06 min for the first, 12.6 min for the second.

`O=C(O)CC1OCC=C2CN3CCC45C6=CC(=O)C(=O)C([N+](=O)[O-])=C6NC4C1C2CC35` (centres undefined) [Cacotheline] and `Cc1cn(C2CC(O)C(COP(=O)(O)O)O2)c(=O)[nH]c1=O` (centres undefined) [Thymidine monophosphate] are within 1.5-fold of each other in LC retention time: 11.6 min for the first, 11.9 min for the second.

`Oc1cc(O)c2c(c1)OC(c1ccc(O)c(O)c1)C(O)C2` (centres undefined) [Catechin] and `O=c1c(O)c(-c2ccc(O)cc2O)oc2cc(O)cc(O)c12` [Morin] are within 1.5-fold of each other in LC retention time: 8.63 min for the first, 6.55 min for the second.

Going from `COc1cc2c(c(OC)c1OC)-c1ccc(OC)c(=O)cc1C(NC(C)=O)CC2` (centres undefined) [Colchicine] to `COc1ccc(Cc2cnc(N)nc2N)cc1OC` [Diaveridine], the LC retention time rises from 1.36 min to 8.91 min (6.6-fold).

Compared with `CN1CC(=O)NC1=N` [Creatinine], `Cn1c(=O)c2[nH]cnc2n(C)c1=O` [Theophylline] is 4.3-fold lower in LC retention time: 9.87 min for the first, 2.28 min for the second.

`Nc1ccn(C2OC(CO)C(O)C2O)c(=O)n1` (centres undefined) [Cytidine] and `Nc1ccn(C2CC(O)C(CO)O2)c(=O)n1` (centres undefined) [Deoxycytidine] are within 1.5-fold of each other in LC retention time: 10.5 min for the first, 10 min for the second.

`Nc1ccnc(=O)[nH]1` [Cytosine] and `Nc1nc2nc[nH]c2c(=O)[nH]1` [Guanine] are within 1.5-fold of each other in LC retention time: 10.4 min for the first, 9.81 min for the second.

`CC(C)C[C@@H](N)C(=O)O` [D-Leucine] and `CC(C)[C@@H](N)C(=O)O` [D-valine] are within 1.5-fold of each other in LC retention time: 9.5 min for the first, 10.5 min for the second.

`Nc1ccccc1C(=O)CC(N)C(=O)O` [D-kynurenine] and `N[C@@H](Cc1ccc(O)cc1)C(=O)O` [L-tyrosine] are within 1.5-fold of each other in LC retention time: 9.76 min for the first, 11.2 min for the second.

`Nc1nc2c(ncn2C2CC(O)C(CO)O2)c(=O)[nH]1` (centres undefined) [Deoxyguanosine] and `Nc1nc2c(ncn2C2OC(CO)C(O)C2O)c(=O)[nH]1` (centres undefined) [Guanosine] are within 1.5-fold of each other in LC retention time: 9.48 min for the first, 10.6 min for the second.

`COc1cc(-c2ccc(N)c(OC)c2)ccc1N` [Dianisidine o-] and `O=c1c2ccccc2oc2ccccc12` [Xanthone] are within 1.5-fold of each other in LC retention time: 1.46 min for the first, 1.22 min for the second.

Compared with `C(=NC1CCCCC1)=NC1CCCCC1` [Dicyclohexylcarbodiimide-n n'], `O=C(O)C1CCNCC1` [Isonipecotic acid] is 10-fold higher in LC retention time: 1.09 min for the first, 11 min for the second.

`OCCNCCO` [Diethanolamine] and `N[C@@H](CCO)C(=O)O` [L-Homoserine] are within 1.5-fold of each other in LC retention time: 11.3 min for the first, 12.6 min for the second.

First: Nc1nc2ncc(CNc3ccc(C(=O)NC(CCC(=O)O)C(=O)O)cc3)nc2c(=O)[nH]1 (centres undefined) [Folic Acid]
Second: Nc1ccc(C(=O)NCC(=O)O)cc1 [p-aminohippuric acid]
The LC retention time of the first is 2-fold higher: 11.4 min for the first, 5.67 min for the second.

`NCCCC(=O)O` [Gamma-amino-n-butyric acid] and `NCCCC[C@H](N)C(=O)O` [L-Lysine] are within 1.5-fold of each other in LC retention time: 11.6 min for the first, 15.9 min for the second.

`NC(=O)CCC(N)C(=O)O` [Glutamine L-] and `CCNC(=O)CC[C@H](N)C(=O)O` [L-Theanine] are within 1.5-fold of each other in LC retention time: 12.9 min for the first, 10.6 min for the second.

`NC(N)=NCC(=O)O` [Glycocyamine] and `NC(N)=NCCC[C@H](N)C(=O)O` [L-Arginine] are within 1.5-fold of each other in LC retention time: 12.8 min for the first, 16 min for the second.

`NCC(=O)NCC(=O)O` [Glycylglycine] and `O=C(O)CNCC(=O)O` [Iminodiacetic acid] are within 1.5-fold of each other in LC retention time: 14.4 min for the first, 13.7 min for the second.

`O=c1[nH]cnc2nc[nH]c12` [Hypoxanthine] and `O=c1[nH]c(=O)c2[nH]cnc2[nH]1` [Xanthine] are within 1.5-fold of each other in LC retention time: 7.88 min for the first, 8.29 min for the second.

First: c1c[nH]cn1 [Imidazole]
Second: N[C@@H](Cc1cnc[nH]1)C(=O)O [L-Histidine monohydrochloride]
The LC retention time of the first is 1.5-fold lower: 10.4 min for the first, 15.7 min for the second.

`NC(=O)Cc1c[nH]c2ccccc12` [Indole-3-acetamide] and `O=C(O)c1ccc2ccccc2n1` [Quinaldic acid] are within 1.5-fold of each other in LC retention time: 2.48 min for the first, 1.9 min for the second.

Going from `O=c1[nH]cnc2c1ncn2C1OC(CO)C(O)C1O` (centres undefined) [Inosine] to `Cc1cn(C2CC(O)C(CO)O2)c(=O)[nH]c1=O` (centres undefined) [Thymidine], the LC retention time falls from 9.18 min to 4.41 min (2.1-fold).

`O=P([O-])([O-])OCC(O)CO` [L-Alpha-Glycerophosphate] and `NC(CO)C(=O)O` [Serine L-] are within 1.5-fold of each other in LC retention time: 13.5 min for the first, 13.2 min for the second.

`CCCC[C@H](N)C(=O)O` [L-Norleucine] and `CCC(N)C(=O)O` [L-a-Amino-n-butyric acid] are within 1.5-fold of each other in LC retention time: 9.62 min for the first, 11.6 min for the second.

`O=C(O)[C@@H]1CCCN1` [L-Proline] and `O=C(O)[C@@H]1C[C@@H](O)CN1` [Trans-4-hydroxy-L-proline] are within 1.5-fold of each other in LC retention time: 10.4 min for the first, 12.1 min for the second.

`Cl.N[C@@H](CS)C(=O)O.O` [L-cysteine hydrochloride hydrate] and `C[C@@H](O)[C@H](N)C(=O)O` [L-threonine] are within 1.5-fold of each other in LC retention time: 11.9 min for the first, 12.5 min for the second.

`CC(C)(C)[C@H](N)C(=O)O` [L-tert-Leucine] and `COC(C)C(N)C(=O)O` (centres undefined) [O-methyl threonine] are within 1.5-fold of each other in LC retention time: 10 min for the first, 10.4 min for the second.

`C1COCCN1` [Morpholine] and `CC1OC(OC2C(Oc3cc(O)c4c(c3)OC(c3ccc(O)cc3)CC4=O)OC(CO)C(O)C2O)C(O)C(O)C1O` (centres undefined) [Naringin CHR] are within 1.5-fold of each other in LC retention time: 10.4 min for the first, 7.51 min for the second.

Compared with `NC(=O)c1ccc[n+](C2OC(COP(=O)(O)OP(=O)([O-])OCC3OC(n4cnc5c(N)ncnc54)C(O)C3O)C(O)C2O)c1` (centres undefined) [Nicotinamide adenine dinucleotide], `CC1OC(OCC2OC(Oc3c(-c4ccc(O)c(O)c4)oc4cc(O)cc(O)c4c3=O)C(O)C(O)C2O)C(O)C(O)C1O` (centres undefined) [Rutin Trihydrate] is 1.5-fold lower in LC retention time: 14.1 min for the first, 9.3 min for the second.

`C[C@@H](OP(=O)(O)O)[C@H](N)C(=O)O` [O-phospho-L-threonine] and `Cc1ncc(COP(=O)(O)O)c(C=O)c1O` [Pyridoxal-5'-phosphate] are within 1.5-fold of each other in LC retention time: 14.5 min for the first, 10.3 min for the second.

Going from `Nc1ccc(C(=O)O)cc1` [P-Aminobenzoic acid] to `NCCc1ccc(O)cc1` [Tyramine], the LC retention time rises from 2.26 min to 10.5 min (4.6-fold).

`O=C(CCc1ccc(O)cc1)c1c(O)cc(O)cc1OC1OC(CO)C(O)C(O)C1O` (centres undefined) [Phloridzin] and `Cc1cc2nc3c(=O)[nH]c(=O)nc-3n(CC(O)C(O)C(O)CO)c2cc1C` (centres undefined) [Riboflavin] are within 1.5-fold of each other in LC retention time: 7.09 min for the first, 7.85 min for the second.

Going from `Cc1ncc(CO)c(CO)c1O` [Pyridoxine] to `Cc1c[nH]c(=O)[nH]c1=O` [Thymine], the LC retention time falls from 9.21 min to 3.51 min (2.6-fold).

Molecule `NCCS(=O)(=O)O` [Taurine] has an LC retention time of 12.6 min.

Source: the RepoRT retention time repository (doi:10.1007/s11306-014-0727-x)
